Consider 7 compounds from patent US7632811B2, “Analogs of parathyroid hormone” (Societe de Conseils de Recherches et D'Applications …, priority 1995, dated 2009).

Non-standard residues stand in square brackets, D forms with d. Residues, ends and D or L forms follow the SMILES beside them. Cha = N[C@@H](CC1CCCCC1)C(=O)O

The assay concerns the target T1, PTH receptor present on SaOS-2 (human osteosarcoma cells) (Homo sapiens, UniProt Q03431).
T1 construct: host or cells: SaOS-2 human osteosarcoma cells (intact, confluent monolayers)
T1 sequence (Q03431 27-593): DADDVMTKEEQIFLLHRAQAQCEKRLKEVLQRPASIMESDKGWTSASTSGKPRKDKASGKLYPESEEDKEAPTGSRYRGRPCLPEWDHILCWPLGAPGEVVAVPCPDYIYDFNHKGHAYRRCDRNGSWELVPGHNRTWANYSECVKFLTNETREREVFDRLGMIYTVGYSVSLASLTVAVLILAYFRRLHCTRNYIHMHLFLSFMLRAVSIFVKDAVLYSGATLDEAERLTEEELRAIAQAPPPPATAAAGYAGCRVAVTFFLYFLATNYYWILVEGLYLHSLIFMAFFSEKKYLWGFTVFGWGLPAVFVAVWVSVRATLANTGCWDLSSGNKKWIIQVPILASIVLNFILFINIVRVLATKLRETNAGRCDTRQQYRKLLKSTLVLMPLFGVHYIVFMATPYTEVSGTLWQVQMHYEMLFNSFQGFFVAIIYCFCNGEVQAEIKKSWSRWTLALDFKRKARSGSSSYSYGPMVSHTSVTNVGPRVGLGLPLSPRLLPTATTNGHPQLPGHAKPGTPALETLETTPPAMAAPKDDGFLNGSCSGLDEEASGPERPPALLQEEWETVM
The assay is described as follows: Binding to PTH receptor on SaOS-2 cells (competition with mono-125I-[Nle8,18,Tyr34(3-125I)]bPTH(1-34)NH2). The following applies: Table I, 2 hrs at room temperature, read-out: Kd (half maximal inhibition of binding of mono-125I-[Nle8,18, Tyr34(3-125I)]bPTH(1-34)NH2). A digest of the protocol:
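Confluent SaOS-2 cells in 5% FBS RPMI were incubated 2 h at room temperature with 10×10^4 cpm mono-125I-[Nle8,18,Tyr34(3-125I)]bPTH(1-34)NH2 plus competing peptide at 10^−11 to 10^−4 M. After washing, cell-bound radioactivity was counted; Kd taken as half-maximal inhibition of tracer binding.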
The Kd is the equilibrium constant for the complex coming apart. With `CC[C@H](C)[C@H](NC(=O)[C@H](CCC(=O)O)NC(=O)[C@H](CO)NC(=O)[C@@H](NC(=O)[C@@H](N)CO)C(C)C)C(=O)N[C@@H](CCC(N)=O)C(=O)N[C@@H](CC(C)C)C(=O)N[C@@H](CCSC)C(=O)N[C@@H](Cc1c[nH]cn1)C(=O)N[C@@H](CC(N)=O)C(=O)N[C@@H](CC(C)C)C(=O)NCC(=O)N[C@@H](CCCCN)C(=O)N[C@@H](Cc1c[nH]cn1)C(=O)N[C@@H](CC(C)C)C(=O)N[C@@H](CC(N)=O)C(=O)N[C@@H](CO)C(=O)N[C@@H](CCSC)C(=O)N[C@@H](CCC(=O)O)C(=O)N[C@@H](CCCNC(=N)N)C(=O)N[C@H](C(=O)N[C@@H](CCC(=O)O)C(=O)N[C@@H](CC1CCCCC1)C(=O)N[C@@H](CC(C)C)C(=O)N[C@@H](CCCNC(=N)N)C(=O)N[C@@H](CCCCN)C(=O)N[C@@H](CCCCN)C(=O)N[C@@H](CC(C)C)C(=O)N[C@@H](CCC(N)=O)C(=O)N[C@@H](CC(=O)O)C(=O)N[C@H](C(=O)N[C@@H](Cc1c[nH]cn1)C(=O)N[C@@H](CC(N)=O)C(=O)N[C@@H](Cc1ccccc1)C(N)=O)C(C)C)C(C)C` [[Cha^23]hPTH(1-34)NH2] (H-SVSEIQLMHNLGKHLNSMERVE[Cha]LRKKLQDVHNF-NH2), the Kd is 200 nM.

As for `CC[C@H](C)[C@H](NC(=O)[C@H](CCC(=O)O)NC(=O)[C@H](CO)NC(=O)[C@@H](NC(=O)[C@@H](N)CO)C(C)C)C(=O)N[C@@H](CCC(N)=O)C(=O)N[C@@H](CC(C)C)C(=O)N[C@@H](CCSC)C(=O)N[C@@H](Cc1c[nH]cn1)C(=O)N[C@@H](CC(N)=O)C(=O)N[C@@H](CC(C)C)C(=O)NCC(=O)N[C@@H](CCCCN)C(=O)N[C@@H](Cc1c[nH]cn1)C(=O)N[C@@H](CC(C)C)C(=O)N[C@@H](CC(N)=O)C(=O)N[C@@H](CO)C(=O)N[C@@H](CCSC)C(=O)N[C@@H](CCC(=O)O)C(=O)N[C@@H](CCCNC(=N)N)C(=O)N[C@H](C(=O)N[C@@H](CCC(=O)O)C(=O)N[C@@H](Cc1c[nH]c2ccccc12)C(=O)N[C@@H](CC1CCCCC1)C(=O)N[C@@H](CCCNC(=N)N)C(=O)N[C@@H](CCCCN)C(=O)N[C@@H](CCCCN)C(=O)N[C@@H](CC1CCCCC1)C(=O)N[C@@H](CCC(N)=O)C(=O)N[C@@H](CCCCN)C(=O)N[C@@H](CC1CCCCC1)C(=O)N[C@@H](Cc1c[nH]cn1)C(=O)N[C@@H](CC(N)=O)C(=O)N[C@@H](Cc1ccccc1)C(N)=O)C(C)C` [[Cha^24,28,31, Lys^30]hPTH(1-34)NH2] (H-SVSEIQLMHNLGKHLNSMERVEW[Cha]RKK[Cha]QK[Cha]HNF-NH2), the Kd is 500 nM.

Take `CC[C@H](C)[C@H](NC(=O)[C@H](CCC(=O)O)NC(=O)[C@H](CO)NC(=O)[C@@H](NC(=O)[C@@H](N)CO)C(C)C)C(=O)N[C@@H](CCC(N)=O)C(=O)N[C@@H](CC(C)C)C(=O)N[C@@H](CCSC)C(=O)N[C@@H](Cc1c[nH]cn1)C(=O)N[C@@H](CC(N)=O)C(=O)N[C@@H](CC(C)C)C(=O)NCC(=O)N[C@@H](CCCCN)C(=O)N[C@@H](Cc1c[nH]cn1)C(=O)N[C@@H](CC(C)C)C(=O)N[C@@H](CC(N)=O)C(=O)N[C@@H](CO)C(=O)N[C@@H](CCSC)C(=O)N[C@@H](CCC(=O)O)C(=O)N[C@@H](CCCNC(=N)N)C(=O)N[C@H](C(=O)N[C@@H](CCC(=O)O)C(=O)N[C@@H](Cc1c[nH]c2ccccc12)C(=O)N[C@@H](CC1CCCCC1)C(=O)N[C@@H](CCCNC(=N)N)C(=O)N[C@@H](CCCCN)C(=O)N[C@@H](CCCCN)C(=O)N[C@@H](CC1CCCCC1)C(=O)N[C@@H](CCC(N)=O)C(=O)N[C@@H](CC(=O)O)C(=O)N[C@@H](CC1CCCCC1)C(=O)N[C@@H](Cc1c[nH]cn1)C(=O)N[C@@H](CC(N)=O)C(=O)N[C@@H](Cc1ccccc1)C(N)=O)C(C)C` [[Cha^24,28,31]hPTH(1-34)NH2] (H-SVSEIQLMHNLGKHLNSMERVEW[Cha]RKK[Cha]QD[Cha]HNF-NH2): the Kd is 1000 nM.

In the case of `CC[C@H](C)[C@H](NC(=O)[C@H](CCC(=O)O)NC(=O)[C@H](CO)NC(=O)[C@@H](NC(=O)[C@@H](N)CO)C(C)C)C(=O)N[C@@H](CCC(N)=O)C(=O)N[C@@H](CC(C)C)C(=O)N[C@@H](CCSC)C(=O)N[C@@H](Cc1c[nH]cn1)C(=O)N[C@@H](CC(N)=O)C(=O)N[C@@H](CC(C)C)C(=O)NCC(=O)N[C@@H](CCCCN)C(=O)N[C@@H](Cc1c[nH]cn1)C(=O)N[C@@H](CC(C)C)C(=O)N[C@@H](CC(N)=O)C(=O)N[C@@H](CO)C(=O)N[C@@H](CCSC)C(=O)N[C@@H](CCC(=O)O)C(=O)N[C@@H](CCCNC(=N)N)C(=O)N[C@H](C(=O)N[C@@H](CCC(=O)O)C(=O)N[C@@H](Cc1c[nH]c2ccccc12)C(=O)N[C@@H](CC1CCCCC1)C(=O)N[C@@H](CCCNC(=N)N)C(=O)N[C@@H](CCCCN)C(=O)N[C@@H](CCCCN)C(=O)N[C@@H](CC(C)C)C(=O)N[C@@H](CCC(N)=O)C(=O)N[C@@H](CC(=O)O)C(=O)N[C@H](C(=O)N[C@@H](Cc1c[nH]cn1)C(=O)N[C@@H](CC(N)=O)C(=O)N[C@@H](Cc1ccccc1)C(N)=O)C(C)C)C(C)C` [[Cha^24]hPTH(1-34)NH2] (H-SVSEIQLMHNLGKHLNSMERVEW[Cha]RKKLQDVHNF-NH2), the Kd came out at 100 nM.

Regarding `CC[C@H](C)[C@H](NC(=O)[C@H](CCC(=O)O)NC(=O)[C@H](CO)NC(=O)[C@@H](NC(=O)[C@@H](N)CO)C(C)C)C(=O)N[C@@H](CCC(N)=O)C(=O)N[C@@H](CC(C)C)C(=O)N[C@@H](CCSC)C(=O)N[C@@H](Cc1c[nH]cn1)C(=O)N[C@@H](CC(N)=O)C(=O)N[C@@H](CC(C)C)C(=O)NCC(=O)N[C@@H](CCCCN)C(=O)N[C@@H](Cc1c[nH]cn1)C(=O)N[C@@H](CC(C)C)C(=O)N[C@@H](CC(N)=O)C(=O)N[C@@H](CO)C(=O)N[C@@H](CCSC)C(=O)N[C@@H](CCC(=O)O)C(=O)N[C@@H](CCCNC(=N)N)C(=O)N[C@H](C(=O)N[C@@H](CCC(=O)O)C(=O)N[C@@H](Cc1c[nH]c2ccccc12)C(=O)N[C@@H](CC(C)C)C(=O)N[C@@H](CCCNC(=N)N)C(=O)N[C@@H](CCCCN)C(=O)N[C@@H](CCCCN)C(=O)N[C@@H](CC1CCCCC1)C(=O)N[C@@H](CCC(N)=O)C(=O)N[C@@H](CC(=O)O)C(=O)N[C@@H](CC1CCCCC1)C(=O)N[C@@H](Cc1c[nH]cn1)C(=O)N[C@@H](CC(N)=O)C(=O)N[C@@H](Cc1ccccc1)C(N)=O)C(C)C` [[Cha^28,31]hPTH(1-34)NH2] (H-SVSEIQLMHNLGKHLNSMERVEWLRKK[Cha]QD[Cha]HNF-NH2), the Kd is 60 nM.

`CC[C@H](C)[C@H](NC(=O)[C@H](CCC(=O)O)NC(=O)[C@H](CO)NC(=O)[C@@H](NC(=O)[C@@H](N)CO)C(C)C)C(=O)N[C@@H](CCC(N)=O)C(=O)N[C@@H](CC(C)C)C(=O)N[C@@H](CCSC)C(=O)N[C@@H](Cc1c[nH]cn1)C(=O)N[C@@H](CC(N)=O)C(=O)N[C@@H](CC(C)C)C(=O)NCC(=O)N[C@@H](CCCCN)C(=O)N[C@@H](Cc1c[nH]cn1)C(=O)N[C@@H](CC(C)C)C(=O)N[C@@H](CC(N)=O)C(=O)N[C@@H](CO)C(=O)N[C@@H](CCSC)C(=O)N[C@@H](CCC(=O)O)C(=O)N[C@@H](CCCNC(=N)N)C(=O)N[C@H](C(=O)N[C@@H](CCC(=O)O)C(=O)N[C@@H](Cc1c[nH]c2ccccc12)C(=O)N[C@@H](CC(C)C)C(=O)N[C@@H](CCCNC(=N)N)C(=O)N[C@@H](CCCCN)C(=O)N[C@@H](CCCCN)C(=O)N[C@@H](CC1CCCCC1)C(=O)N[C@@H](CCC(N)=O)C(=O)N[C@@H](CC(=O)O)C(=O)N[C@H](C(=O)N[C@@H](Cc1c[nH]cn1)C(=O)N[C@@H](CC(N)=O)C(=O)N[C@@H](Cc1ccccc1)C(N)=O)C(C)C)C(C)C` [[Cha^28]hPTH(1-34)NH2] (H-SVSEIQLMHNLGKHLNSMERVEWLRKK[Cha]QDVHNF-NH2): the Kd was 50 nM.

As to `CC[C@H](C)[C@H](NC(=O)[C@H](CCC(=O)O)NC(=O)[C@H](CO)NC(=O)[C@@H](NC(=O)[C@@H](N)CO)C(C)C)C(=O)N[C@@H](CCC(N)=O)C(=O)N[C@@H](CC(C)C)C(=O)N[C@@H](CCSC)C(=O)N[C@@H](Cc1c[nH]cn1)C(=O)N[C@@H](CC(N)=O)C(=O)N[C@@H](CC(C)C)C(=O)NCC(=O)N[C@@H](CCCCN)C(=O)N[C@@H](Cc1c[nH]cn1)C(=O)N[C@@H](CC(C)C)C(=O)N[C@@H](CC(N)=O)C(=O)N[C@@H](CO)C(=O)N[C@@H](CCSC)C(=O)N[C@@H](CCC(=O)O)C(=O)N[C@@H](CCCNC(=N)N)C(=O)N[C@H](C(=O)N[C@@H](CCC(=O)O)C(=O)N[C@@H](Cc1c[nH]c2ccccc12)C(=O)N[C@@H](CC(C)C)C(=O)N[C@@H](CCCNC(=N)N)C(=O)N[C@@H](CCCCN)C(=O)N[C@@H](CCCCN)C(=O)N[C@@H](CC(C)C)C(=O)N[C@@H](CCC(N)=O)C(=O)N[C@@H](CC(=O)O)C(=O)N[C@@H](CC1CCCCC1)C(=O)N[C@@H](Cc1c[nH]cn1)C(=O)N[C@@H](CC(N)=O)C(=O)N[C@@H](Cc1ccccc1)C(N)=O)C(C)C` [[Cha^31]hPTH(1-34)NH2] (H-SVSEIQLMHNLGKHLNSMERVEWLRKKLQD[Cha]HNF-NH2), the Kd came out at 30 nM.
